From patent US20230416248A1, “COMPOUNDS AND USES THEREOF” (Foghorn Therapeutics Inc., priority 2020, published 2023)
Where two headings read alike, the source gives them in different places.

Key:
BRM = target: T1, BRM (Homo sapiens, UniProt P51531); assay: ATPase catalytic activity of BRM, ADP-Glo in vitro biochemical assay; settings: for IC50: 30 nM BRM, 400 μM ATP; for Ratio* (BRG1 IC50 (μM) divided by BRM IC50 (μM)): selectivity ratio BRG1 IC50 / BRM IC50
T1 construct: made in house; host or cells: High Five insect cells
T1 sequence (P51531 whole entry): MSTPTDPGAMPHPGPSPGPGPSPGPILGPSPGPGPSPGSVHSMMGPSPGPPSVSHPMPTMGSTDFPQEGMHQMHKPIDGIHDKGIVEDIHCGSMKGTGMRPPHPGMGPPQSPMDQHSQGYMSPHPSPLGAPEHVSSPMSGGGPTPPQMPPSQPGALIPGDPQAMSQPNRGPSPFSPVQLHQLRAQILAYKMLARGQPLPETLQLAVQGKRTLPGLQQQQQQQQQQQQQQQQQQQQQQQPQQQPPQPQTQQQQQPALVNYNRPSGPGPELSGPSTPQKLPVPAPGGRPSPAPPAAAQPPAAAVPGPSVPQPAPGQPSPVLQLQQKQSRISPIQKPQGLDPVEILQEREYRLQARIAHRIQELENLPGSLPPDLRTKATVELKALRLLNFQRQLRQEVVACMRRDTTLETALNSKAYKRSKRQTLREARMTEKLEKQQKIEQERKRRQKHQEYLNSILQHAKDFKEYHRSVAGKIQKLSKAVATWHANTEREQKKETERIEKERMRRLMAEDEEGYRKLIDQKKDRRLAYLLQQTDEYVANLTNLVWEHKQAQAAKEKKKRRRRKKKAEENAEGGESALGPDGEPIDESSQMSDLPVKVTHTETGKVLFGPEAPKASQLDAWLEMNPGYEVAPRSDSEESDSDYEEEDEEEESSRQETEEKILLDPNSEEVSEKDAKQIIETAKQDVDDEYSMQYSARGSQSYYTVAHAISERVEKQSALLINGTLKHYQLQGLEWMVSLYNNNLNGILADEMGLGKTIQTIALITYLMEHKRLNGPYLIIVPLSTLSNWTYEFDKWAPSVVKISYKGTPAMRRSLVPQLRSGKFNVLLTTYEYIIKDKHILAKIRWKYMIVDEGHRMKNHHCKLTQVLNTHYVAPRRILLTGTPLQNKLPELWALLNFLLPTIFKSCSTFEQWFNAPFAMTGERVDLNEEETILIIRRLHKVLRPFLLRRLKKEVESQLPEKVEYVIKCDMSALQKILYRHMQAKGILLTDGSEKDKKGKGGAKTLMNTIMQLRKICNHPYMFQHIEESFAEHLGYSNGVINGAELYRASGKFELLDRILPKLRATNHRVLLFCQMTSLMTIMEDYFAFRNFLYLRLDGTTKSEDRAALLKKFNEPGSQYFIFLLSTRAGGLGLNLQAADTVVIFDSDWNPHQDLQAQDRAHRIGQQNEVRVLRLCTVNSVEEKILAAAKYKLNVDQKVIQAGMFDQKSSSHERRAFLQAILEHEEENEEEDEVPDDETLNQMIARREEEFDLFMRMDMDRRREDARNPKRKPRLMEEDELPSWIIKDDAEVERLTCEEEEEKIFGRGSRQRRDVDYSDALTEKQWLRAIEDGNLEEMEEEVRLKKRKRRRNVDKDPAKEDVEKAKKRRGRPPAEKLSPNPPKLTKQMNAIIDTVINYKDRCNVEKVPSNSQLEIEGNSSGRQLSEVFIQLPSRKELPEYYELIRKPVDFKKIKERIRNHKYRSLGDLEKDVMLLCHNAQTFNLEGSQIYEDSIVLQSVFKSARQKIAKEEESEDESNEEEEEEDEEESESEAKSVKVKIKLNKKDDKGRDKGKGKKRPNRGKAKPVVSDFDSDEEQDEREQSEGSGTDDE
Procedure: (§1) The ATPase catalytic activity of BRM or BRG-1 was measured by an in vitro biochemical assay using ADP-Glo™ (Promega, V9102). The ADP-Glo™ kinase assay is performed in two steps once the reaction is complete. The first step is to deplete any unconsumed ATP in the reaction. The second step is to convert the reaction product ADP to ATP, which will be utilized by the luciferase to generate luminesce and be detected by a luminescence reader, such as Envision.
The assay reaction mixture ([…]) contains 30 nM of BRM or BRG-1, 20 nM salmon sperm DNA (from Invitrogen, UfraPure™ Salmon Sperm DNA Solution, cat #15632011), and 400 μM of ATP in the ATPase assay buffer, which comprises of 20 mM Tris, pH 8, 20 mM MgCl2, 50 mM NaCl, 0.1% Tween-20, and 1 mM fresh DTT (Piercer™ DTT (Dithiothreitol), cat #20290). The reaction is initiated by the addition of the 2.5 μL ATPase solution to 2.5 μL ATP/DNA solution on low volume white Proxiplate-384 plus plate (PerkinElmer, cat #6008280) and incubates at room temperature for 1 hour. Then, following addition of 5 μL of ADP-Glo™ Reagent provided in the kit, the reaction incubates at room temperature for 40 minutes. Then, 10 μL of Kinase Detection Reagent provided in the kit is added to convert ADP to ATP, and the reaction incubates at room temperature for 60 minutes. Finally, luminescence measurement is collected with a plate-reading luminometer, such as Envision.

BRG-1 = target: T2, BRG-1 (Homo sapiens, UniProt P51532); assay: ATPase catalytic activity of BRG-1, ADP-Glo in vitro biochemical assay; settings: 30 nM BRG-1, 400 μM ATP, read-out: BRG1 IC50
T2 construct: made in house; host or cells: High Five insect cells
T2 sequence (P51532 whole entry): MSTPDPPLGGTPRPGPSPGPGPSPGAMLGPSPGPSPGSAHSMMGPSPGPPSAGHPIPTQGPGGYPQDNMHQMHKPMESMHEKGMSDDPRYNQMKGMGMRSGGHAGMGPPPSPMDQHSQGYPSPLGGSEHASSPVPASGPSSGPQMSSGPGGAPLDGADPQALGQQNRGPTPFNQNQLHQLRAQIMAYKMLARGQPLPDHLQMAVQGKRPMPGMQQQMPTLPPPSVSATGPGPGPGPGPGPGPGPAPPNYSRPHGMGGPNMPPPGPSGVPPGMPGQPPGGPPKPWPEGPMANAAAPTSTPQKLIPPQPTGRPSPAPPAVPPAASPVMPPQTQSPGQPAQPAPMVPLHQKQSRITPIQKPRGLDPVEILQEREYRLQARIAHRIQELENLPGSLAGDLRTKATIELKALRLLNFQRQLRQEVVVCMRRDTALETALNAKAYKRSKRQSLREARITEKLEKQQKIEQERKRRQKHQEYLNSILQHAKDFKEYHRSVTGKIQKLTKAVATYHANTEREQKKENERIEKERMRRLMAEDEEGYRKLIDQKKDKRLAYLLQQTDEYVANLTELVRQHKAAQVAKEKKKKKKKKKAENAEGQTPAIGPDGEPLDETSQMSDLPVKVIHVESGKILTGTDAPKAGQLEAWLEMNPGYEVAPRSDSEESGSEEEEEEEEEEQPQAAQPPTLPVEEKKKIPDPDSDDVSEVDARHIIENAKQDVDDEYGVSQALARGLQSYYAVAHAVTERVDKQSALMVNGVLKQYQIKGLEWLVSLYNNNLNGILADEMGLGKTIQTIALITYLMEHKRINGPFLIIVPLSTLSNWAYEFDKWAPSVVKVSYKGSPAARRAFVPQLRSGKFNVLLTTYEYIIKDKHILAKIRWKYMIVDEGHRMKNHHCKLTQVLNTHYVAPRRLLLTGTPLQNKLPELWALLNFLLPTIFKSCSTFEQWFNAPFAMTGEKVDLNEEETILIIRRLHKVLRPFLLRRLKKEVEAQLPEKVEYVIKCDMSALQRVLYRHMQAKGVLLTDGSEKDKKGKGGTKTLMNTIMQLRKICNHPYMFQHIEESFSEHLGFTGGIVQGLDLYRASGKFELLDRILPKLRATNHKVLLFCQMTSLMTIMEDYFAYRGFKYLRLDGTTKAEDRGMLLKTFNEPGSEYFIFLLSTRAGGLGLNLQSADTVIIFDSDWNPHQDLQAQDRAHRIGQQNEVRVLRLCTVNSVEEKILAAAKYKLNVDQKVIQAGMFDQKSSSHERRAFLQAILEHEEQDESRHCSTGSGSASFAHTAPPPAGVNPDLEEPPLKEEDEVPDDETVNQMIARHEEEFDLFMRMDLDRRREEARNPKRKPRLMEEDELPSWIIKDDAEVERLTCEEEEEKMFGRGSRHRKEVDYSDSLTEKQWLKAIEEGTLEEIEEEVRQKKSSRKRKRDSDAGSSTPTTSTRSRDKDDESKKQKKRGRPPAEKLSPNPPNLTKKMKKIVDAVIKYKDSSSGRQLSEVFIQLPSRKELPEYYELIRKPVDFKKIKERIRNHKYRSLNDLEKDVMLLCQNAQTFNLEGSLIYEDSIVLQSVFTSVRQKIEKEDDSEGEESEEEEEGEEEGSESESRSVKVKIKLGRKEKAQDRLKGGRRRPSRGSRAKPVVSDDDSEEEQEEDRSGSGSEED
Procedure: as §1
Then, following addition of 5 μL of ADP-Glo™ Reagent provided in the kit, the reaction incubates at room temperature for 40 minutes. Then, 10 μL of Kinase Detection Reagent provided in the kit is added to convert ADP to ATP, and the reaction incubates at room temperature for 60 minutes. Finally, luminescence measurement is collected with a plate-reading luminometer, such as Envision.

[1] = ATPase catalytic activity, ADP-Glo

Row | Structure (SMILES) | IC50 (BRM; [1]) [nM] | Ratio* (BRM; ratio of BRG1 IC50 to BRM IC50) | IC50 (BRG-1; [1]) [nM] | IC50 (BRM; ADP-Glo ATPase assay) [nM] | Ratio* (BRM; ratio BRG1 IC50 / BRM IC50) | IC50 (BRG-1; ADP-Glo ATPase assay) [nM] | Ratio* (BRG1 IC50 (μM) divided by BRM IC50 (μM)) (BRM)
1 | O=C(NCc1cc2nc(-c3cccc(OCC4CC4(F)F)n3)ccc2cn1)c1ccc2c(c1)S(=O)(=O)CCOC2 (stereo not shown) [Compound 391] | 28.7 | 15.87 | 456 |  |  |  | 
2 | O=C(NCc1cc2nc(N3CC4CC4c4cccnc43)ccc2cn1)c1ccc2c(c1)S(=O)(=O)CCOC2 (stereo not shown) [Compound 855] |  |  |  | 395 | 9.60 | 3800 | 
3 | COc1nc(-c2ccc3cnc(CNC(=O)c4ccc5c(c4)S(=O)(=O)CCOC5)cc3n2)ccc1C(F)F [Compound 399] | 7.8 | 14.57 | 114 |  |  |  | 
4 | CCN1CCN(c2ccc3cnc(CNC(=O)c4ccc5c(c4)S(=O)(=O)CCOC5)cc3n2)c2ncccc21 [Compound 615] | 22.1 | 16.22 | 358 |  |  |  | 
5 | CN1CC[C@H](Oc2cccc(-c3ccc4cnc(CNC(=O)c5ccc6c(c5)S(=O)(=O)CCOC6)cc4n3)n2)C1 [Compound 342] | 283 | 15.24 | 4320 |  |  |  | 
6 | COC(C)(C)CN(C)c1cccc(-c2ccc3cnc(CNC(=O)c4ccc5c(c4)S(=O)(=O)CCOC5)cc3n2)n1 [Compound 44] |  |  |  | 90.5 |  | 694 | 7.67
7 | CCOc1cccc(-c2ccc3cnc(CNC(=O)c4cc(F)c5c(c4)S(=O)(=O)CCOC5)cc3n2)n1 [Compound 49] |  |  |  | 24.8 |  | 455 | 18.33
8 | O=C(NCc1cc2nc(-c3ccc(C(F)F)cc3OC3CC3)ccc2cn1)c1ccc2c(c1)S(=O)(=O)CCOC2 [Compound 357] | 21.4 | 13.72 | 293 |  |  |  | 
9 | Cn1cc(-c2ccc3cnc(CNC(=O)c4ccc5c(c4)S(=O)(=O)CCOC5)cc3n2)c(OC(F)F)n1 [Compound 812] |  |  |  | 45.8 | 14.46 | 662 | 
10 | O=C(NCc1cc2cc(-c3cncc(C4CC4)n3)ccc2cn1)c1cnc2c(c1)S(=O)(=O)CCOC2 [Compound 248] |  |  |  | 70.2 |  | 590 | 8.41
11 | COC[C@H](C)Oc1ccc2c(c1)N(c1ccc3cnc(CNC(=O)c4ccc5c(c4)S(=O)(=O)CCOC5)cc3n1)CCC2 [Compound 697] | 4.9 | 7.66 | 37.9 |  |  |  | 
12 | C[C@@H]1C[C@@H]1c1ccc2c(n1)N(c1ccc3cnc(CNC(=O)c4ccc5c(c4)S(=O)(=O)CCOC5)cc3n1)CCO2 [Compound 832] |  |  |  | 15.5 | 58.26 | 906 | 
13 | CC[C@@H]1CCS(=O)(=O)c2cc(C(=O)NCc3cc4nc(-c5cccc(N6C[C@@H](C)O[C@@H](C)C6)n5)ccc4cn3)ccc2O1 [Compound 580] | 106 | 16.67 | 1760 |  |  |  | 
14 | COC[C@@H](C)Nc1cccc(-c2ccc3cnc(CNC(=O)c4ccc(C(F)F)c(S(C)(=O)=O)c4)cc3n2)n1 [Compound 60] |  |  |  | 789 |  | 5000 | 6.34
15 | O=C(NCc1cc2nc(N3CCOc4ccc(C(F)F)nc43)ccc2cn1)c1ccc2c(c1)S(=O)(=O)CCOC2 [Compound 594] | 37.2 | 31.92 | 1190 |  |  |  | 
16 | O=C(NCc1cc2nc(-c3ccccc3OC(F)F)ccc2cn1)c1ccc2c(c1)S(=O)(=O)CCOC2 [Compound 250] |  |  |  | 105 |  | 751 | 7.17
17 | O=C(NCc1cc2nc(-c3cccc([C@H]4CC4(F)F)c3)ccc2cn1)c1ccc2c(c1)S(=O)(=O)CCOC2 [Compound 252] |  |  |  | 75.3 |  | 1380 | 18.31
18 | COC1CCN(c2ccc3cnc(CNC(=O)c4ccc5c(c4)S(=O)(=O)CCOC5)cc3n2)c2ncccc21 (stereo not shown) [Compound 496] | 157 | 15.21 | 2390 |  |  |  | 

Row | Structure (SMILES) | IC50 (BRM; [1]) [nM] | Ratio* (BRM; ratio of BRG1 IC50 to BRM IC50) | IC50 (BRG-1; [1]) [nM] | IC50 (BRM; ADP-Glo ATPase assay) [nM] | Ratio* (BRM; ratio BRG1 IC50 / BRM IC50) | IC50 (BRG-1; ADP-Glo ATPase assay) [nM] | Ratio* (BRG1 IC50 (μM) divided by BRM IC50 (μM)) (BRM)
19 | C[C@@H]1CN(c2cccc(-c3ccc4cnc(CNC(=O)c5cc6c(cc5F)COCCS6(=O)=O)cc4n3)n2)C[C@H](C)O1 [Compound 648] | 5 | 3.85 | 19.4 |  |  |  | 
20 | C[C@@H]1[C@@H](c2cccc(-c3ccc4cnc(CNC(=O)c5ccc6c(c5)S(=O)(=O)CCOC6)cc4n3)n2)C1(F)F [Compound 173] |  |  |  | 108 |  | 1490 | 13.78
21 | CN1CCc2c(-c3ccc4cnc(CNC(=O)c5ccc6c(c5)S(=O)(=O)CCOC6)cc4n3)cccc21 [Compound 233] |  |  |  | 77.1 |  | 1080 | 14.01
22 | CC1COc2ccc(-c3ccc4cnc(CNC(=O)c5ccc6c(c5)S(=O)(=O)CCOC6)cc4n3)nc2N1C (stereo not shown) [Compound 426] | 23.8 | 5.71 | 136 |  |  |  | 
23 | O=C(NCc1cc2nc(N3CCCc4c(N5CCC5)ccnc43)ccc2cn1)c1ccc2c(c1)S(=O)(=O)CCOC2 [Compound 814] |  |  |  | 21.4 | 10.40 | 222 | 
24 | O=C(NCc1cc2nc(-c3cccc4c3CN(CC(F)F)CC4)ccc2cn1)c1ccc2c(c1)S(=O)(=O)CCOC2 [Compound 675] | 884 | 5.66 |  |  |  |  | 
25 | COC1Cc2cccnc2N(c2ccc3cnc(CNC(=O)c4ccc5c(c4)S(=O)(=O)CCOC5)cc3n2)C1 (stereo not shown) [Compound 633] | 2230 | 2.24 |  |  |  |  | 
26 | CO[C@H](C)c1ccc2c(n1)N(c1ccc3cnc(CNC(=O)c4ccc5c(c4)S(=O)(=O)CCOC5)cc3n1)CCC2 [Compound 562] | 425 | 11.77 |  |  |  |  | 
27 | O=C(NCc1cc2nc(-n3cccc(N4CCOCC4)c3=O)ccc2cn1)c1ccc2c(c1)S(=O)(=O)CCOC2 [Compound 401] | 1320 | 3.79 |  |  |  |  | 
28 | C[C@@H]1CN(c2cccc(-c3ccc4cnc(CNC(=O)c5ccc6c(c5)S(=O)(=O)CCO[C@H]6C5CC5)cc4n3)n2)C[C@H](C)O1 [Compound 459] | 192 | 25.98 |  |  |  |  | 
29 | CC[C@@H]1COCc2ccc(C(=O)NCc3cc4nc(-c5cccc(N6C[C@@H](C)O[C@@H](C)C6)n5)ccc4cn3)cc2S1(=O)=O [Compound 359] |  | 1.00 |  |  |  |  | 
30 | C[C@@H]1CN(c2cccc(-c3ccc4cnc(CNC(=O)c5ccc6c(c5)S(=O)(=O)[C@H](C)CO[C@H]6C)cc4n3)n2)C[C@H](C)O1 [Compound 518] | 4560 | 1.10 |  |  |  |  | 
31 | C[C@@H]1CN(c2cccc(-c3ccc4cnc(CNC(=O)c5cc(Cl)c6c(c5)S(=O)(=O)[C@H](C)CCO6)cc4n3)n2)C[C@H](C)O1 [Compound 486] | 1160 | 4.29 |  |  |  |  | 
32 | C[C@@H]1CN(c2cccc(-c3ccc4cnc(CNC(=O)c5ccc6c(c5)S(=O)(=O)[C@@H](C)CC6)cc4n3)n2)C[C@H](C)O1 [Compound 363] | 206 | 24.25 |  |  |  |  | 
33 | COc1ccc(C(C)(F)F)cc1-c1ccc2cnc(CNC(=O)c3ccc4c(c3)S(=O)(=O)CCOC4)cc2n1 [Compound 368] |  | 1.00 |  |  |  |  | 
34 | CO[C@H](c1ccc2c(n1)N(c1ccc3cnc(CNC(=O)c4ccc5c(c4)S(=O)(=O)CCOC5)cc3n1)CCC2)C1CC1 [Compound 664] | 1750 | 2.86 |  |  |  |  | 
35 | CC1Cc2cccnc2N(c2ccc3cnc(CNC(=O)c4ccc5c(c4)S(=O)(=O)CCOC5)cc3n2)C1 (stereo not shown) [Compound 556] | 1700 | 2.94 |  |  |  |  | 
